From patent US20190070124A1, “COMPOSITIONS OF CB2 RECEPTOR SELECTIVE AGONISTS FOR TREATMENT OF MENTAL DISORDERS” (priority 2016, published 2019)
Entries after “also recorded” stand apart in the source; their conditions may differ.

Test: Body weight in the neonatal PCP mouse model of schizophrenia
[1] = PND 35-37, postnatal BCP 10 mg/kg 1 h after PCP

## trans-(1R,9S)-8-methylene-4,11,11trimethylbicyclo[7.2.0]undec-4-ene [BCP]
BCP 10 mg/kg 1 h after PCP, ethanol-based vehicle, PCP+BCP vs PCP
  body weight at PND 17: no significant difference between groups treated with PCP with or without BCP
BCP 10 mg/kg 1 h after PCP, postnatal, DMSO-based vehicle
  body weight: completely reversed the effect of PCP on body weight
BCP 10 mg/kg injected 1 h after each PCP 5 mg/kg dose, PND 3-16, Cremophor EL:ethanol:saline vehicle, weight PND 3-17
  body weight: significantly reversed the inhibitory effect of PCP on body weight; also recorded: reversed the reduction in body weight during the first week of life; also recorded: did not restore the weight completely
PND 17, BCP 10 mg/kg 1 h after PCP, ethanol-based vehicle
  effect on PCP-induced reduction of body weight, males: appeared to be more prominent
[1]
  body weight, females: significantly reversed the effect of PCP on female body weight
  body weight, males: no significant difference in male body weight between the groups
PND 104, postnatal PCP, BCP 5 mg/kg PND 43-61
  body weight: did not increase body weight in females and males, rather reduced body weight of PCP+BCP treated group
Postnatal PCP, BCP 5 mg/kg injected twice a week PND 43-61 (DMSO:Cremophor EL:saline)
  body weight of adolescent mice: did not affect body weight of adolescent mice
Postnatal day 83, oral BCP 10 mg/kg twice a week, PND 43-62
  body weight, male mice: did not affect body weight of male mice at postnatal day 83; also recorded: did not affect their body weight
